Laboratory results from ChEMBL document CHEMBL5154721, “Discovery of HDAC6-Selective Inhibitor NN-390 with in Vitro Efficacy in Group 3 Medulloblastoma” (J Med Chem, 2022).
Calls of active or inactive are those of the source. No cut-off for these calls is given here.

How the values were obtained:
[1] = Cytotoxicity against human fetal neuronal stem cells assessed as inhibition of cell growth incubated for 72 hrs measured by spectrophotometer analysis; format: toxicity, cell-based, NSC
MV4-11 [2] = experiment: Induction of apoptosis in human MV4-11 cells assessed as viable cells at 0.75 uM after 24 hrs by Annexin V/PI staining based flow cytometric analysis (Rvb=58.28%); format: functional; details: read-out: Activity
Histone deacetylase 9 = Histone deacetylase 9 (Homo sapiens, UniProt Q9UKV0); experiment: Inhibition of full length human recombinant HDAC9 expressed in Sf9 baculovirus system using FAM-labeled acetylated peptide as substrate by measuring fluorescence intensity by EMSA method
HD-MB03 = experiment: Antiproliferative activity against human HD-MB03 cells at 964 nM after 4 hrs by microplate reader method; format: functional, cell-based
[3] = target: T1, Protein deacetylase HDAC6 (Homo sapiens) (UniProt Q9UBN7); experiment: Potency index, ratio of test compound residence time to KT-531 residence time in full length HDAC6-NanoLuc fusion protein (unknown origin) expressed in HeLa cells by NanoBRET assay; format: cell-based; details: time 5.0 min
T1 sequence (whole entry): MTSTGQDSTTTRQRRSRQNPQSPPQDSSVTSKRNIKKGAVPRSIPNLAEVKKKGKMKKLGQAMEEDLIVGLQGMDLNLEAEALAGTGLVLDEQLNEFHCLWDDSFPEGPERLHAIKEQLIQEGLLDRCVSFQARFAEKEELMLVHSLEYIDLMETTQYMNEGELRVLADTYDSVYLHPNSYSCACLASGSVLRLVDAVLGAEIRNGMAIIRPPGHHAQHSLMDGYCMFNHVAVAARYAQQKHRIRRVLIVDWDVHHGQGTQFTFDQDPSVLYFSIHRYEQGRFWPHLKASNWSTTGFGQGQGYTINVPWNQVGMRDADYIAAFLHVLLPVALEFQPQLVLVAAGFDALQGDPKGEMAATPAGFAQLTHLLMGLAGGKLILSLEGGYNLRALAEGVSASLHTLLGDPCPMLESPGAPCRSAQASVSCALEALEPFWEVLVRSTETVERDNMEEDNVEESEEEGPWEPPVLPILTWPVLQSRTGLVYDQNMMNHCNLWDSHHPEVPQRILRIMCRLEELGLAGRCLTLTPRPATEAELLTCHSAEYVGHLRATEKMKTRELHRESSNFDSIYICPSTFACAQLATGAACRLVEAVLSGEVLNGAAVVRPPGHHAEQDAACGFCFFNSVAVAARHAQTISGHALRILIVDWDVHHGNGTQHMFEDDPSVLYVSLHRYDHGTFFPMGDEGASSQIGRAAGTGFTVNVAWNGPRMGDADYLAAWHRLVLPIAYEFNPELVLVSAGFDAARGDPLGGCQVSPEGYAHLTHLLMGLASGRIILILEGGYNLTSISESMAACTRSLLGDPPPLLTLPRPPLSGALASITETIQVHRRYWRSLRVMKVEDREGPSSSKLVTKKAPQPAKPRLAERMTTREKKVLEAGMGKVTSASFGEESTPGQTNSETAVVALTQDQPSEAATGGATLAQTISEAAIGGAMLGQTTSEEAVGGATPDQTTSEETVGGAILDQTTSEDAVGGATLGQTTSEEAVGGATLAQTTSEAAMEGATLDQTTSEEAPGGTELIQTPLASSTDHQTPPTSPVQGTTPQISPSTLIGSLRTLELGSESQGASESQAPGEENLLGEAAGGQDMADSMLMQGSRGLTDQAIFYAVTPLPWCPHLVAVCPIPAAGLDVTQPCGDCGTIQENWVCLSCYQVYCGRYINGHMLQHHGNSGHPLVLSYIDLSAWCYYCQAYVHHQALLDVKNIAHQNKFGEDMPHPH

[4] = Cytotoxicity against primary normal human fibroblast cells assessed as inhibition of cell growth incubated for 72 hrs measured by spectrophotometer analysis; format: toxicity, cell-based
[5] = Cytotoxicity against human primary pooled fibroblasts cells assessed as inhibition of cell growth incubated for 72 hrs measured by spectrophotometer analysis; format: toxicity, cell-based, Fibroblast
MV4-11 [6] = experiment: Induction of apoptosis in human MV4-11 cells assessed as late apoptotic cells at 0.75 uM after 24 hrs by Annexin V/PI staining based flow cytometric analysis (Rvb=2%); format: functional
Histone deacetylase 5 = Histone deacetylase 5 (Homo sapiens, UniProt Q9UQL6); experiment: Inhibition of full length human recombinant HDAC5 expressed in Sf9 baculovirus system using FAM-labeled acetylated peptide as substrate by measuring fluorescence intensity by EMSA method
[7] = target: T1, Protein deacetylase HDAC6 (Homo sapiens); experiment: Inhibition of full length human recombinant HDAC6 in human MV4-11 cells assessed as increase in acetylation of […] for 6 hrs by immunofluorescence imaging method; format: cell-based; details: dose 0.1-2 µM, DDE = dose-dependent effect
Histone deacetylase 2 = Histone deacetylase 2 (Homo sapiens, UniProt Q92769); experiment: Inhibition of full length human recombinant HDAC2 expressed in Sf9 baculovirus system using FAM-labeled acetylated peptide as substrate by measuring fluorescence intensity by EMSA method
[8] = target: T1, Protein deacetylase HDAC6 (Homo sapiens); experiment: Inhibition of full length human recombinant HDAC6 in human MV4-11 cells assessed as acetylation of histone H3 at 5 uM by Western blot analysis; format: cell-based; details: time 6.0 hrs

Histone deacetylase 9, sequence (Q9UKV0 whole entry): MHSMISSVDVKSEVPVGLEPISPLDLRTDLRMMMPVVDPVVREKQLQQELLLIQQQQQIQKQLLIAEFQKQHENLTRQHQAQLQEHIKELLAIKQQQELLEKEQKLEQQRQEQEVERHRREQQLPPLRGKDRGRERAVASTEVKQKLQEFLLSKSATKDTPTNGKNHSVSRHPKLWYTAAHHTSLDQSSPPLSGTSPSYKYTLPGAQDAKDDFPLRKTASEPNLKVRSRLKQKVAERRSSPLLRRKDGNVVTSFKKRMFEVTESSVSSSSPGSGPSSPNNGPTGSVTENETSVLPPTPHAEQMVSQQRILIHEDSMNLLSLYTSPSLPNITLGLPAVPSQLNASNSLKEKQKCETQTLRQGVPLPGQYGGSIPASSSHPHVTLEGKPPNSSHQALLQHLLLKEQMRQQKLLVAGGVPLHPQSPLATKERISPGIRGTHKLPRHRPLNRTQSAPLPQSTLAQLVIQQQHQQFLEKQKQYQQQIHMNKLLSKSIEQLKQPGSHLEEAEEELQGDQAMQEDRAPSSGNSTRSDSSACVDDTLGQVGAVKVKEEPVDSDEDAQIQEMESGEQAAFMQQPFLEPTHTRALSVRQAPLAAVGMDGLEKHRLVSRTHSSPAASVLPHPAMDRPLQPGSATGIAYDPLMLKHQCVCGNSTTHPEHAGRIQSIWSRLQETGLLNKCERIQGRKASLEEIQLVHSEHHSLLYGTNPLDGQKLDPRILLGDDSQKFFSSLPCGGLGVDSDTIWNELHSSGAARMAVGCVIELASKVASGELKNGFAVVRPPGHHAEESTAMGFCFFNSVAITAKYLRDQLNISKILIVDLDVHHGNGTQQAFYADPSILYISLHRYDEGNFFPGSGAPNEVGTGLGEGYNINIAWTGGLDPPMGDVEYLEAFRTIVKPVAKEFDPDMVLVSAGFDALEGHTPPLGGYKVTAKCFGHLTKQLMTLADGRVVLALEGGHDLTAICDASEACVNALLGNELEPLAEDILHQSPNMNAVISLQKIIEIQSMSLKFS
Histone deacetylase 2, sequence (Q92769 whole entry): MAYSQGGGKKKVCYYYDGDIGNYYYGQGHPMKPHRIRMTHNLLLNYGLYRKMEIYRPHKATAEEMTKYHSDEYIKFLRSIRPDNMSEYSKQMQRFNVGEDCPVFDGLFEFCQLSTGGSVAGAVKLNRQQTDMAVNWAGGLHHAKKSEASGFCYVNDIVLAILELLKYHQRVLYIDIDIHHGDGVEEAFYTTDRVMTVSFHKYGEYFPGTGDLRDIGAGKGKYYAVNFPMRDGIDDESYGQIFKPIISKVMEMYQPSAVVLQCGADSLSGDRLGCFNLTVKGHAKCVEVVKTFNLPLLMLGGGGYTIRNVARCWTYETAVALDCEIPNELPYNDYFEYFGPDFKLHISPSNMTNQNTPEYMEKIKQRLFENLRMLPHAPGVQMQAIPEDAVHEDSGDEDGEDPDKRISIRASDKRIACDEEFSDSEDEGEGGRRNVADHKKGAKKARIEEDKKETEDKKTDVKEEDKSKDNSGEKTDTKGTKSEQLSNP
Histone deacetylase 5, sequence (Q9UQL6 whole entry): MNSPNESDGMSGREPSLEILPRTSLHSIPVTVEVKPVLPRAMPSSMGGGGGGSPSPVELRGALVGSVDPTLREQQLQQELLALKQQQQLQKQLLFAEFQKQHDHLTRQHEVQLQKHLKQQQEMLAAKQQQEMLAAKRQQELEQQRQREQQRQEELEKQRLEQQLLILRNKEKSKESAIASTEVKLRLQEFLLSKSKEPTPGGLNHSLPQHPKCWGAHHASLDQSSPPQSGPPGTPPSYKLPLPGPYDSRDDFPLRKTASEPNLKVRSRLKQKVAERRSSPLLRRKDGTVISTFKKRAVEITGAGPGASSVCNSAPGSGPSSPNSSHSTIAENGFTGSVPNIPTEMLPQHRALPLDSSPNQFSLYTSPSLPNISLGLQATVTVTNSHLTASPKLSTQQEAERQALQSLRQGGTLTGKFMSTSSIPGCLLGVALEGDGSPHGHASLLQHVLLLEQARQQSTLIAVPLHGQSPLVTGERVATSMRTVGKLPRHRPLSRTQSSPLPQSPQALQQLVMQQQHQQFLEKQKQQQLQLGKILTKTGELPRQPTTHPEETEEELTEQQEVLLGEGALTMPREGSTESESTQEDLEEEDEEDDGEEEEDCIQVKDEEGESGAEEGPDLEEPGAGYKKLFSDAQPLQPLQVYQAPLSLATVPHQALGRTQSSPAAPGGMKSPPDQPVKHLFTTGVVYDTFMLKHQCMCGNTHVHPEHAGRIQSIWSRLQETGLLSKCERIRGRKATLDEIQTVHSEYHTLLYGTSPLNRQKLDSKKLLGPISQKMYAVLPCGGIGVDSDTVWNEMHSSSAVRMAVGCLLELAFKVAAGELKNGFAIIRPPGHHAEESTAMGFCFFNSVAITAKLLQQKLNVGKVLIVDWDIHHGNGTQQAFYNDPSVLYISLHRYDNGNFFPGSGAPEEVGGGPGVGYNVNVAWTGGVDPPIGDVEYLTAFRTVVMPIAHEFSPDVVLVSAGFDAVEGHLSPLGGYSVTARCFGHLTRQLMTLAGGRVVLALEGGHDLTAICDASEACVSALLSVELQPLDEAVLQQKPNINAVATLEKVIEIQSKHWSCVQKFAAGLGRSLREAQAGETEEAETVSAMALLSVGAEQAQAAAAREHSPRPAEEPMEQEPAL

IC50 (Histone deacetylase 9): > 5 µM
fold change (FC) [3]: 1.9
IC50 (Histone deacetylase 5): > 3 µM
inhibition [7]: Dde
IC50 (Histone deacetylase 2): 0.316 µM
inhibition [8]: Active
Compound: CC(C)N(Cc1ccc(C(=O)NO)cc1)S(=O)(=O)c1cc(F)c(F)c(F)c1F
IC50 at 72 h [1]: 5.76 µM
viability at 0.75 µM (MV4-11 [2]): 85.7%
Activity (HD-MB03): Active
IC50 at 72 h [4]: 12.4 µM
IC50 at 72 h [5]: 8.8 µM
Activity (MV4-11 [6]): 7.81%
